Here are results for seven molecules from patent publication EP4599829A1, “USE OF IMIDAZOLIDINYL VANILLIC ACID ETHER DERIVATIVE IN TREATMENT OF DISEASE ACCOMPANIED BY FIBROSIS” (Hefei Institute of Pharmaceutical Industry Co., Ltd., priority 2022, dated 2024).

Marks after values point to notes of the source that are not given here.

What all share (assay type): in vivo, Female BALB/c mice
The test system of test [1] is BLM-Induced Systemic Sclerosis Mouse Model. Briefly: Comparison with other antiplatelet drugs: skin thickening in BLM-induced systemic sclerosis mouse model. The settings on record: 0.10 mmol/kg once a day for 28 days; for Skin thickness: oral (gavage) (Sodium Ozagrel: intravenous injection), mean ± SE, n = 8, blank 0.22±0.05, model 0.87±0.15. From the text:
(§1) Female BALB/c mice, weighing 18-22 g, were purchased from Beijing Weitonglihua Experimental Animal Technology Co., Ltd. and housed in an SPF environment for 1 week (with free access to drinking water during the feeding period). They were then randomly divided into 9 groups, with 10 mice in each group, namely, blank group, model group, sodium ozagrel group, dipyridamole group, clopidogrel group, cilostazol group, ticagrelor group, aspirin group, and HY-2 group. The back of mice of each group was shaved in an area of 1 cm*1 cm. Except for the blank group which was subcutaneously injected with normal saline, all other groups were subcutaneously injected with BLM 100 µL (0.5 mg/mL) for 28 consecutive days (the injection area was injected at the four corners of the shaved area for the first 4 times, and the center of the shaved area for the 5th time, and this cycle was repeated. The skin changes at the subcutaneous injection site and the weight changes of the mice were observed every week). Each treatment group was respectively given sodium ozagrel, dipyridamole, clopidogrel, cilostazol, ticagrelor, aspirin, and HY-2 30 minutes after the injection of BLM, once a day for 28 consecutive days (the dosage and administration method are shown in Table 1). Table 1 Dosage and administration method
After the last administration, the animals were sacrificed, and the back skin tissue was taken, fixed with 4% paraformaldehyde, dehydrated, paraffin-embedded and sliced. The tissue sections were stained with HE, and the pathological morphological changes of the skin tissue were examined with a microscope and the skin thickening was measured.
The experimental data were processed using GraphPad Prism 7, and the experimental groups were compared using the student t test.

In the next test the test system is thromboxane B2 (TXB2). Nature of the test: Serum TXB2 level (ELISA) in BLM-induced systemic sclerosis mouse model. The settings on record: 0.10 mmol/kg once a day for 28 days; for TXB2: serum, oral (gavage) (Sodium Ozagrel: intravenous injection), mean ± SE, n = 8, blank 74.19±14.76, model 261.91±10.96.
Source text: as §1
(§2) Mouse TXB2 ELISA kit was purchased from Shanghai Jianglai Biological, batch number: 20220715, antibody types: purified mouse TXB2 capture antibody and horseradish peroxidase (HRP)-labeled detection antibody; mouse TGF-β1 ELISA kit was purchased from Shanghai Jianglai Biological, batch number: 20220806, antibody types: purified mouse TGF-β1 capture antibody and horseradish peroxidase (HRP)-labeled detection antibody.
(§3) The kit uses a double-antibody one-step sandwich enzyme-linked immunosorbent assay (ELISA). Serum specimens, standards, and horseradish peroxidase (HRP)-labeled detection antibodies are added sequentially to the coated microwells pre-coated with mouse analyte capture antibodies, followed by incubation and thorough washing. The substrate TMB (3,3',5,5'-tetramethylbenzidine) is used for color development. TMB is converted to be blue under the catalysis of peroxidase (HRP) and then converted to be finally yellow under the action of acid. The depth of color is positively correlated with the content of the analyte in the serum sample. The absorbance (OD value) was measured at a wavelength of 450 nm using a microplate reader to calculate the sample concentration.
(§4) After the last administration, the animals were sacrificed and serum samples were collected. Standard wells were set on the enzyme-labeled coated plate, standard solutions of different concentrations were prepared according to the instructions, and 50uL of standard solutions of different concentrations were added to each standard well. Blank wells and test sample wells were set on the enzyme-labeled coated plate, 40uL of sample diluent was first added to the test sample well, and 20uL of test serum sample was then added. 100uL of enzyme-labeled reagent was added to each well, except the blank well. The plate was sealed with a sealing film and incubated at 37°C for 60 minutes. The sealing film was removed, and after discarding the liquid and spinning dry, each well was filled with washing solution, and stood for 30 seconds, then discarding the washing solution, repeating 5 times and spinning dry. 50uL of color developer A (containing H2O2) was first added into each well, and then 50uL of color developer B (containing substrate TMB) was added, gently shaking to mix, and color developing at 37°C in the dark for 15 minutes. 50uL of stop solution was added to each well to stop the reaction (the blue color immediately turns to yellow). The microplate reader was adjusted to zero with the blank well, and the absorbance OD value of each well was measured in sequence at a wavelength of 450nm. The measurement should be carried out within 15 minutes after adding the stop solution.

For test [2], the system named is transforming growth factor β1 (TGF-β1). Nature of the test: Serum TGF-β1 level (ELISA) in BLM-induced systemic sclerosis mouse model. The settings on record: 0.10 mmol/kg once a day for 28 days; for TGF-β1: serum, oral (gavage) (Sodium Ozagrel: intravenous injection), mean ± SE, n = 8, blank 379.76±120.63, model 913.10±64.73.
Source text: as §1, §2, §3, §4

For test [3], the system named is BLM-Induced Systemic Sclerosis Mouse Model. Briefly: Skin thickening (HE staining) in BLM-induced systemic sclerosis mouse model, dose groups. The settings on record: compared with the model group. The procedure: Female BALB/c mice, weighing 18-22 g, were purchased from Beijing Weitong Lihua Experimental Animal Technology Co., Ltd. and housed in an SPF environment for 1 week (with free access to drinking water during the feeding period). They were then randomly divided into 5 groups, 8 mice in each group, namely, blank group, model group, 15 mg/kg, 30 mg/kg, and 60 mg/kg dosage groups of sodium 4-(2-(1H-imidazol-1-yl)ethoxy)-3-methoxybenzoate (HY-2). The back of each group of mice was shaved in an area of 1 cm*1 cm. Except for the blank group which was subcutaneously injected with normal saline, all other groups were injected with BLM 100 µL (0.5 mg/mL) for 28 consecutive days (the injection area was the four corners of the shaved area for the first 4 injections, and the center of the shaved area for the 5th injection, and this cycle was repeated. The skin changes at the subcutaneous injection site and the weight changes of the mice were observed every week). After the injection of BLM, the treatment group was orally (gavaged) given the corresponding dose of sodium 4-(2-(1H-imidazole-1-yl)ethoxy)-3-methoxybenzoate, once a day, for 28 consecutive days.
After the last administration, the animals were sacrificed, and appropriate skin tissues were taken for HE staining and measurement of skin thickening.

Test [4] has the same test system. Briefly: Lung histopathology (HE staining) in BLM-induced systemic sclerosis mouse model. The note with it: each dose group (15, 30, 60 mg/kg) oral (gavage) once a day for 28 days, compared with the model group. As to the method: (§5) Female BALB/c mice, weighing 18-22 g, were purchased from Beijing Weitonglihua Experimental Animal Technology Co., Ltd. and housed in an SPF environment for 1 week (with free access to water during the feeding period). They were then randomly divided into 5 groups, with 8 mice in each group, namely, blank group, model group, HY-2 15 mg/kg, 30 mg/kg, and 60 mg/kg dose groups. The back of each group of mice was shaved in an area of 1 cm*1 cm. Except for the blank group which was subcutaneously injected with normal saline, all other groups were injected with BLM 100 µL (0.5 mg/mL) for 28 consecutive days (the injection area was the four corners of the shaved area for the first 4 injections, and the center of the shaved area for the 5th injection, and this cycle was repeated. The skin changes at the subcutaneous injection site and the weight changes of the mice were observed every week). After the injection of BLM, each dose treatment group was orally (gavage) given the corresponding dose of HY-2 once a day for 28 consecutive days.
After the last administration, the animals were sacrificed, and appropriate lung tissues were taken for HE staining and slide preparation to examine the lung tissue structure and inflammatory cell infiltration.

Test [5] shares this test system. Nature of the test: Collagen deposition (Masson staining) in skin and lung tissues of BLM-induced systemic sclerosis mouse model. The note with it: each dose group (15, 30, 60 mg/kg) oral (gavage) once a day for 28 days, compared with the model group, P<0.01. As to the method:
as §5, with “administered” for “given”
After the last administration, the animals were sacrificed, and appropriate skin and lung tissues were taken for Masson staining and slide preparation to examine the collagen deposition in the skin and lung tissues. The percentage of collagen deposition was quantified using Image-Pro® Plus software.

On to `CC(=O)Oc1ccccc1C(=O)O` [Aspirin, aspirin], for which, in test [1], the Skin thickness is 0.80±0.09^aa mm. Further, the TXB2 in the test with thromboxane B2 (TXB2) turned out to be 239.57 ± 13.60 pg/mL. Also, the TGF-β1 in test [2] worked out at 827.68 ± 77.88 pg/mL.
Taken in the same sequence, the figures for `O=C1CCc2cc(OCCCCc3nnnn3C3CCCCC3)ccc2N1` [Cilostazol, cilostazol] were 0.74±0.11^a mm, 259.32±7.13^a pg/mL and 838.27 ± 65.93 pg/mL.
As for `COC(=O)[C@H](c1ccccc1Cl)N1CCc2sccc2C1` [Clopidogrel, clopidogrel], the Skin thickness in test [1] was 0.81±0.10^aa mm. For the same molecule, the TXB2 in the test on thromboxane B2 (TXB2) was found to be 208.46 ± 42.87 pg/mL. In test [2], this molecule registered a TGF-β1 of 822.62 ± 76.60 pg/mL.
On the same counts, the results for `OCCN(CCO)c1nc(N2CCCCC2)c2nc(N(CCO)CCO)nc(N3CCCCC3)c2n1` [Dipyridamole, dipyridamole] are 0.74 ± 0.12^a mm, 248.84 ± 38.88 pg/mL and 867.56 ± 113.73 pg/mL.
For the molecule `COc1cc(C(=O)[O-])ccc1OCCn1ccnc1.[Na+]` [HY-2, sodium 4-(2-(1H-imidazol-1-yl)ethoxy)-3-methoxybenzoate], the skin thickening result in test [3] (30 mg/kg oral (gavage) once a day for 28 days, P<0.05) is reported as “significantly inhibited”; in test [3] (60 mg/kg oral (gavage) once a day for 28 days, P<0.01), “significantly inhibited”. In addition, in test [4], the “lung tissue structure and inflammatory cell infiltration” value is “regular and infiltrated by less inflammatory cells”. Further, the “collagen deposition in the lung tissue” value in test [5] is recorded as “significantly reduced”. In test [5], the “collagen deposition in the skin” value was “significantly reduced”. The Skin thickness in test [1] was 0.59±0.06 mm. Besides, the “skin thickness compared with the model group (in words)” value in test [1] (P<0.01) is listed as “significantly decreased”. Also, in the test on thromboxane B2 (TXB2) (vs model group), the “effect on TXB2 in serum (in words)” value was “significantly reduce”. The molecule also yielded a TXB2 in the test with thromboxane B2 (TXB2) of 215.00 ± 38.92 pg/mL. In addition, in test [2] (vs model group), the “effect on TGF-β1 in serum (in words)” value was “significantly reduce”. Further, in test [2], the TGF-β1 is 783.04 ± 53.77 pg/mL.
For `O=C(O)/C=C/c1ccc(Cn2ccnc2)cc1` [Sodium Ozagrel, sodium ozagrel], the Skin thickness in test [1] is recorded as 0.82±0.16^aa mm. For the same molecule, the TXB2 in the test on thromboxane B2 (TXB2) worked out at 196.54 ± 45.30 pg/mL. Besides, the TGF-β1 in test [2] is listed as 884.74±33.45^aa pg/mL.
In the case of `CCCSc1nc(N[C@@H]2C[C@H]2c2ccc(F)c(F)c2)c2nnn([C@@H]3C[C@H](OCCO)[C@@H](O)[C@H]3O)c2n1` [Ticagrelor, ticagrelor], in test [1], the Skin thickness was 0.74±0.07^aa mm. For the same molecule, the TXB2 in the test on thromboxane B2 (TXB2) was determined as 197.76 ± 42.08 pg/mL. Moreover, the TGF-β1 in test [2] was 847.62±43.73^a pg/mL.
